Measured values taken from ChEMBL document CHEMBL4371005, “Overview of the Development of DprE1 Inhibitors for Combating the Menace of Tuberculosis” (J Med Chem, 2018).
pIC50, pKd: −log10 of the molar value. Converted amounts (≈) assume the structure as drawn.

Key:
[1] = test system: Mycobacterium tuberculosis; test: Antimycobacterial activity against Mycobacterium tuberculosis H37Rv after 24 hrs by REMA method; assay type: functional
[2] = test system: Mycobacterium tuberculosis; test: Antimycobacterial activity against Mycobacterium tuberculosis in 7H9 medium; assay type: functional, organism-based
[3] = test system: Mycobacterium tuberculosis; test: Antimycobacterial activity against Mycobacterium tuberculosis in biofilm medium; assay type: functional, organism-based
[4] = test system: Mycobacterium tuberculosis; test: Antimycobacterial activity against GFP-fused Mycobacterium tuberculosis H37Rv after 7 days by fluorescence assay; assay type: functional; conditions: 168 h
[5] = target: T1, Decaprenylphosphoryl-beta-D-ribose oxidase (Mycobacterium tuberculosis (strain ATCC 25618 / H37Rv), UniProt P9WJF1); test: Inhibition of Mycobacterium tuberculosis H37Rv DprE1
T1 sequence (P9WJF1 whole entry): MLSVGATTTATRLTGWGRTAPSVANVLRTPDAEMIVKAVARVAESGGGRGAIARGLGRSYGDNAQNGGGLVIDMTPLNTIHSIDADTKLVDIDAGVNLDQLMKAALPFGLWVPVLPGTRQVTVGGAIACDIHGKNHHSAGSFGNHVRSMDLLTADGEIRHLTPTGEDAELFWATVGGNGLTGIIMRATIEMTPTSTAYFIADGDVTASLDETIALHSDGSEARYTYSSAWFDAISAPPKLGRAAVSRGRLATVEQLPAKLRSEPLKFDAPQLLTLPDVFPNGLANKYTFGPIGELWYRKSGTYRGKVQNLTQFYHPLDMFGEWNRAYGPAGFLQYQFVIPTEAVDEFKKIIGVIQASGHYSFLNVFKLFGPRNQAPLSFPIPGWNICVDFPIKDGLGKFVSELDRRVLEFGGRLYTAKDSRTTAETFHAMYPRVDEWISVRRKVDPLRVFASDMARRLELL

[6] = test system: Mycobacterium tuberculosis; test: Antimycobacterial activity against Mycobacterium tuberculosis H37Rv after overnight incubation by REMA method; assay type: functional
[7] = test system: Mycobacterium tuberculosis; test: Bactericidal activity against recombinant GFP-fused Mycobacterium tuberculosis H37Rv by resazurin dye-based assay; assay type: functional
[8] = test system: Mycobacterium tuberculosis; test: Antimycobacterial activity against recombinant GFP-fused Mycobacterium tuberculosis H37Rv after 10 days by resazurin dye-based assay; assay type: functional; conditions: 240 h
[9] = target: T1, Decaprenylphosphoryl-beta-D-ribose oxidase; test: Inhibition of N-terminal His6-thioredoxin tagged Mycobacterium tuberculosis H37Rv DprE1 expressed in Escherichia coli BL21(DE3) using FPR as substrate by resazurin dye-based fluorescence assay
Cytochrome P450 2C9 = Cytochrome P450 2C9 (Homo sapiens, UniProt P11712); test: Inhibition of CYP2C9 in human liver microsomes using diclofenac as substrate after 30 mins by in presence of NADPH by LC-MS/MS analysis; assay type: ADME
[10] = Inhibition of Mycobacterium tuberculosis DprE1 using FPR as substrate by resazurin dye-based fluorescence assay
[11] = Binding affinity to Mycobacterium tuberculosis DprE1
[12] = test system: Mycobacterium tuberculosis; test: Antimycobacterial activity against Mycobacterium tuberculosis after 5 days by turbidity assay; assay type: functional; conditions: 120 h
[13] = test system: Mycobacterium tuberculosis; test: Antimycobacterial activity against GFP-fused Mycobacterium tuberculosis H37Rv by resazurin dye-based micro-broth dilution method; assay type: functional
[14] = test system: Mycobacterium tuberculosis; test: Antimycobacterial activity against Mycobacterium tuberculosis H37Rv infected in human primary macrophages assessed as reduction in colony forming unit at 5 uM after 2 hrs followed by compound wash out and measured after 7 days by serial dilution method relative to control; assay type: functional
[15] = test system: Mycobacterium tuberculosis; test: Antimycobacterial activity against Mycobacterium tuberculosis H37Rv infected in C57BL/6 mouse primary macrophages assessed as reduction in colony forming unit at 5 uM after 2 hrs followed by compound wash out and measured after 7 days by serial dilution method relative to control; assay type: functional
[16] = target: T2, Decaprenylphosphoryl-beta-D-ribose oxidase (Mycobacterium tuberculosis (strain ATCC 25618 / H37Rv)) (UniProt P9WJF1); test: Inhibition of GFP-fused Mycobacterium tuberculosis H37Rv DprE1 after 72 hrs by fluorescence assay
T2 sequence (whole entry): T1 sequence (P9WJF1 whole entry)

[17] = target: T2, Decaprenylphosphoryl-beta-D-ribose oxidase (Mycobacterium tuberculosis (strain ATCC 25618 / H37Rv)); test: Inhibition of Mycobacterium tuberculosis H37Rv DprE1 at 50 uM relative to control
[18] = target: T1, Decaprenylphosphoryl-beta-D-ribose oxidase; test: Inhibition of Mycobacterium tuberculosis H37Rv DprE1 using FPR as substrate preincubated for 6.5 hrs followed by substrate addition by resazurin dye-based spectrofluorimetric analysis
[19] = target: T2, Decaprenylphosphoryl-beta-D-ribose oxidase (Mycobacterium tuberculosis (strain ATCC 25618 / H37Rv)); test: Ratio of IC50 for inhibition of Mycobacterium tuberculosis H37Rv DprE1 using FPR as substrate in presence of SAM by resazurin dye-based spectrofluorimetric analysis to IC50 for inhibition of Mycobacterium tuberculosis H37Rv DprE1 using FPR as substrate in absence of SAM by resazurin dye-based spectrofluorimetric analysis

Chain of Cytochrome P450 2C9 (P11712 whole entry): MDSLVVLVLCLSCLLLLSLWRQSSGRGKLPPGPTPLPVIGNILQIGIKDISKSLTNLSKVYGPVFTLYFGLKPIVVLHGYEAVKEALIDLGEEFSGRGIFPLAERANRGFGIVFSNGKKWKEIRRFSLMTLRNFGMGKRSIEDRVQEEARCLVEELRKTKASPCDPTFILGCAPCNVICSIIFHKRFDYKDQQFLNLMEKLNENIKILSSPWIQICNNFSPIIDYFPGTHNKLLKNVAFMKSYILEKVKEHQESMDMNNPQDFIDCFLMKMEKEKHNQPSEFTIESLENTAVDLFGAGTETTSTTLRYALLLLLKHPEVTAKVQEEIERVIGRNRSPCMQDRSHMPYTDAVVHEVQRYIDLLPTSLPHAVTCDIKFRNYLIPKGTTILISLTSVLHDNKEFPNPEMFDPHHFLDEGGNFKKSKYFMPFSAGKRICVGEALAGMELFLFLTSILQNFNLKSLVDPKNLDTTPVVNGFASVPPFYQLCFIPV

CCCCN1CCN(c2nc(=O)c3cc(C(F)(F)F)cc(-n4cccc4)c3s2)CC1
MIC [1]: 0.62 µg/mL (≈ 1.42 µM)

CCOC(=O)NC(=O)c1ccsc1NC(=O)c1nc2ccccc2s1
IC50 [2]: 0.19 µg/mL (≈ 0.506 µM)
IC50 [3]: 0.01 µg/mL (≈ 0.0266 µM)

Nc1cc(C(=O)NCCOCc2cccc(Cl)c2)cc([N+](=O)[O-])c1
MIC [4]: > 20 µM

COC(=O)c1ccc(O[C@H]2CCN(C(=O)c3cc([N+](=O)[O-])cc([N+](=O)[O-])c3)C2)cc1
MIC [4]: > 20 µM

COc1ccc(CNc2nc3cc(C(F)(F)F)ccc3nc2C(=O)O)cc1F
pIC50 [5]: 7.10
MIC99 [6]: 6.3 to 12.5 µM (≈ 2.49 to 4.94 µg/mL)

CCc1nc2cc(Cl)ccn2c1C(=O)NCc1ccc(N2CCN(c3ccc(F)cc3)CC2)cc1
pIC50 [5]: < 5.00
MBC [7]: > 200 µM
MIC [8]: 0.017 µM

COc1ccc(CNc2nc3cc(C(F)(F)F)ccc3nc2C(=O)O)cc1
pIC50 [5]: 7.39
MIC99 [6]: 3.1 µM (≈ 1.17 µg/mL)

CCOC(=O)NC(=O)c1ccsc1NC(=O)c1ccn2cnnc2c1
pIC50 [9]: 7.22

O=C(O)c1nc2ccc(C(F)(F)F)cc2nc1NCc1ccc(F)cc1
pIC50 [5]: 7.14
MIC99 [6]: 12.5 µM (≈ 4.57 µg/mL)

Cc1nc2cc(Br)cc([N+](=O)[O-])c2nc1-c1ccccc1
MIC [6]: 3.1 µM (≈ 1.07 µg/mL)

Cc1ccnc(NC(=O)c2ccsc2NC(=O)c2ccn3cnnc3c2)n1
pIC50 (Cytochrome P450 2C9): < 4.30
pIC50 [9]: 7.52

COc1ccc(O[C@H]2CCCN(C(=O)c3cc([N+](=O)[O-])cc([N+](=O)[O-])c3)C2)cc1
MIC [4]: 20 µM (≈ 8.03 µg/mL)

COc1ccc(O[C@H]2CCN(C(=O)c3cc([N+](=O)[O-])cc([N+](=O)[O-])c3)C2)cc1
MIC [4]: 20 µM (≈ 7.75 µg/mL)

O=C(C1CCN(c2nnc(-n3cccc3)s2)CC1)N1CCC(Cc2ccccc2)CC1
pIC50 [10]: 7.27
pKd [11]: 6.60

CCOc1ccc(CNc2nc3cc(C(F)(F)F)ccc3nc2C(=O)O)cc1
pIC50 [5]: 7.06
MIC99 [6]: 3.1 µM (≈ 1.21 µg/mL)

C[C@H]1COC2(CCN(c3nc(=O)c4cc(C(F)(F)F)cc(-n5cccc5)c4s3)CC2)O1
MIC [1]: 0.16 µg/mL (≈ 0.354 µM)

Cc1ccc(C(F)(F)F)cc1CNCc1cc2c(C(C)C)nn(-c3ccccc3)c2[nH]c1=O
MIC [12]: 0.4 µM (≈ 0.182 µg/mL)

N#Cc1ccc(CNc2nc3cc(C(F)(F)F)ccc3nc2C(=O)O)cc1
pIC50 [5]: 7.17
MIC99 [6]: 50 µM (≈ 18.6 µg/mL)

CC[C@@H](CO)NCCN[C@@H](CC)CO [ETHAMBUTOL]
MIC [13]: 1000 to 5000 µg/mL (≈ 4890 to 24500 µM)

O=C(NCCOCc1cccc(Cl)c1)c1cccc([N+](=O)[O-])c1
MIC [4]: > 20 µM

Cc1ccc(C)n1-c1cc(C(F)(F)F)cc2c(=O)nc(N3CCC4(CC3)OC[C@H](C)O4)sc12
MIC [1]: 2.5 µg/mL (≈ 5.21 µM)

O=C(NCCOCc1cccc(Cl)c1)c1cc(NO)cc([N+](=O)[O-])c1
MIC [4]: > 20 µM

COc1ccc(OCCNC(=O)c2cc([N+](=O)[O-])cc([N+](=O)[O-])c2)cc1
fold change (FC) [14]: 10
MIC [4]: 0.2 µM (≈ 0.0723 µg/mL)
fold change (FC) [15]: 10

CC(C)(C)c1ccc(Cn2cnc([N+](=O)[O-])n2)cc1
IC90 [16]: 500 nM

O=C(O)c1nc2ccc(C(F)(F)F)cc2nc1NCc1ccc(Cl)cc1
pIC50 [5]: 7.30
MIC99 [6]: 3.1 µM (≈ 1.18 µg/mL)

Cc1ccc(C(F)(F)F)cc1CNCc1cc2c(C)nn(-c3ccccc3)c2[nH]c1=O
MIC [12]: 0.8 µM (≈ 0.341 µg/mL)

C[C@H]1COC2(CCN(c3nc(=O)c4cc(C(F)(F)F)cc([N+](=O)[O-])c4s3)CC2)O1 [BTZ-043]
MIC [13]: 0.001 µg/mL (≈ 0.00232 µM)

O=C(NCCOCc1ccccc1F)c1cc([N+](=O)[O-])cc([N+](=O)[O-])c1
MIC [4]: 0.08 µM (≈ 0.0291 µg/mL)

O=c1nc(N2CCN(CC3CCCCC3)CC2)sc2c(-n3cccc3)cc(C(F)(F)F)cc12
MIC [1]: 0.16 µg/mL (≈ 0.336 µM)

O=C(O)c1nc2ccc(C(F)(F)F)cc2nc1NCc1ccc(C(F)(F)F)cc1
pIC50 [5]: 6.92
MIC99 [6]: 6.3 µM (≈ 2.62 µg/mL)

O=C(NCCOc1ccccc1F)c1cc([N+](=O)[O-])cc([N+](=O)[O-])c1
MIC [4]: 0.7 µM (≈ 0.244 µg/mL)

O=C(NCCOCc1cccc(C(F)(F)F)c1)c1cc([N+](=O)[O-])cc([N+](=O)[O-])c1
MIC [4]: 0.2 µM (≈ 0.0827 µg/mL)

O=C(NCCOCc1ccccc1)c1cc([N+](=O)[O-])cc([N+](=O)[O-])c1
MIC [4]: 0.2 µM (≈ 0.0691 µg/mL)

CCOC(=O)c1nc2ccc(C(F)(F)F)cc2nc1NCc1ccc(OC)cc1
inhibition [17]: 54%
MIC99 [6]: 3.1 µM (≈ 1.26 µg/mL)

Cc1nc2cc(C(F)(F)F)cc([N+](=O)[O-])c2nc1-c1ccccc1
MIC [6]: 0.75 µM (≈ 0.25 µg/mL)

NNC(=O)c1ccncc1 [ISONIAZID]
MIC [13]: 20 to 200 µg/mL (≈ 146 to 1460 µM)

Cc1ccc(C(F)(F)F)cc1CNCc1cc2c(C3CC3)nn(-c3ccccc3)c2[nH]c1=O
MIC [12]: 0.1 µM (≈ 0.0452 µg/mL)

O=C(NCCOCc1cccc(Cl)c1)c1cc([N+](=O)[O-])cc([N+](=O)[O-])c1
MIC [4]: 1 µM (≈ 0.38 µg/mL)

Cc1nc2c([N+](=O)[O-])cc(C(F)(F)F)cc2nc1-c1ccccc1
MIC [6]: 6.25 µM (≈ 2.08 µg/mL)

Cc1c(CCC(=O)N2CCCC2)c(=O)n2c([nH]c3ccccc32)c1C#N
pIC50 [18]: 7.15
Ratio IC50 [19]: 36
